Experimental data reported in patent US9567329B2, “High penetration prodrug compositions of 1H-imidazo[4,5-c]quinolin-4-amines and 1H-imidazo[4,5-c]quinolin-4-amine-related compounds and uses thereof” (Techfields Pharma Co., Ltd, priority 2007, dated 2017).
Each block holds one compound with its values, some of them ahead of it.

What was measured:
[1] = In vitro penetration rate across human skin in modified Franz cells; format: in vitro ADME; settings: 3% suspension in ethanol/pH 7.4 phosphate buffer (0.2 M) 70/30
Method: Penetration rates of HPPs and their parent drugs through human skin were measured in vitro by modified Franz cells. A Franz cell had two chambers, the top sample chamber and the bottom receiving chamber. The human skin tissue (360-400 μm thick) that separated the top and the receiving chambers was isolated from the anterior or posterior thigh areas.
A compound tested (0.5 mL, 3% in a mixture of ethanol and phosphate buffer (0.2M, pH 7.4) (v/v, 70/30)) was added to the sample chamber of a Franz cell. The receiving chamber contains 2 ml of 2% bovine serum albumin in saline which was stirred at 600 rpm. The amount of the tested compound penetrating the skin was determined by high-performance liquid chromatography (HPLC) method.
The lowest detectable apparent flux values in this method was 1 μg/cm^2/h.

[2] = system: herpes simplex virus Type II; test: Anti-Herpes activity, treated for 5 days, first treatment 5 days after HSV infection; format: in vivo; settings: guinea pigs
Method: (§1) The evaluation of anti-Herpes activity of these prodrugs was carried out using the method described by Kern, et al. [Antimicrob. Agents Chemother. 14, 817, (1978)].
(§2) In the third experiment, female guinea pigs (n=10) were anesthetized. The guinea pigs were then infected with herpes simplex virus (type I or Type II, about 10^5 plaque forming units were used) intravaginally using a cotton swab. […] External lesions were scored daily for ten days using the following scale: 0, no lesion; 1, redness and swelling; 2, a few small vesicles; 3, several large vesicles; 4, large ulcers and necrosis; and 5, paralysis. The percent Lesion Inhibition was calculated as follows: 100−[(Sum of maximum lesion scores of treated group divided by the Sum of the scores of infected control)×100] (Table 7).

[3] = system: herpes simplex virus Type I; test: as above; format: in vivo; settings: guinea pigs
Method: as §1, §2

[4] = system: Human breast cancer cells (BCAP-37)
Description: Human breast cancer cells (BCAP-37, 3-4 mm^3 of tumor tissue was used in each mouse) were subcutaneously xenografted into nude mice (BALB).

[5] = system: Human breast cancer cells (BCAP-37); test: Antitumor activity, breast cancer xenograft, topical treatment from day 1; settings: 50 μl of 3% topically once per day from day 1; after 28 days
Description: Human breast cancer cells (BCAP-37, 4-5 mm^3 of tumor tissue was used in each mouse) were subcutaneous xenografted into nude mice (BALB).

interferon production [6] = test: Interferon inducing activity in guinea pigs (serum protection of fibroblasts from mengovirus); format: in vivo; settings: serum 18 hours after treatment
Method: Without being bound by any mechanism, the ability to induce interferon production of the pro-drugs of the invention was evaluated in guinea pigs (n=10). Untreated guinea pigs provided controls.
Each test drug was administered to real back skin of a guinea pig at a specific dose of about 0.5-4.5 mg/kg respectively.
Each treated and control guinea pig was bled 18 hours after drug treatment and its serum was assayed for interferon activity. The serum was diluted and incubated with guinea pig fibroblast cells at 37° C. overnight in 96 well microtiter plates. The incubated cells were then challenged with an inoculum of mengovirus that was sufficient to kill untreated cells in two days. Two days after such challenge, the cells were examined both microscopically and after staining with crystal violet to determine whether the cells remained intact.
Table 4 contains the results of the study with activity/ml indicating the highest dilute on of serum that protected cells from virus challenge. Untreated guinea pigs provided controls.

[7] = system: herpes simplex virus Type II; test: Anti-Herpes activity, treated for 3 days before HSV infection; format: in vivo; settings: guinea pigs
Method: (§3) The evaluation of anti-Herpes activity of these prodrugs was carried out using the method described by Kern, et al. [Antimicrob. Agents Chemother. 14, 817, (1978)]. In each experiment, female guinea pigs (n=10) were anesthetized. […] Virus replication was monitored by determining the amount of virus recovered with vaginal swabs taken on day 7 after infection. […] The percent Lesion Inhibition was calculated as follows: 100-[(Sum of maximum lesion scores of treated group divided by the Sum of the scores of infected control)×100] (Table 5).

[8] = system: herpes simplex virus Type I; test: as above; format: in vivo; settings: guinea pigs
Method: as §3

interferon production [9] = test: Interferon inducing activity in guinea pigs (serum protection of fibroblasts from mengovirus); format: in vivo; settings: serum 18 hours after treatment; remark: listed apart in the source
[10] = system: Human colon cancer cells (LS174J); test: Antitumor activity, colon cancer xenograft, topical treatment from day 1; settings: 50 μl of 3% topically twice per day from day 1; after 28 days
Description: Human colon cancer cells (LS174J, 4-5 mm^3 of tumor tissue was used in each mouse) were subcutaneously xenografted into nude mice (BALB).

[11] = system: herpes simplex virus Type II; test: Anti-Herpes activity, treated for 5 days, first treatment just after HSV infection; format: in vivo; settings: guinea pigs
Method: as §1
(§4) In the second experiment, female guinea pigs (n=10) were anesthetized. Herpes simplex virus (Type I or Type II, about 10^5 plaque forming units were used) was applied intravaginally to the guinea pigs using a cotton swab. […] Virus replication was monitored by determining the amount of virus recovered with vaginal swabs taken on day 7 after infection. External lesions were scored daily for ten days using the following scale: 0, no lesion; 1, redness and swelling; 2, a few small vesicles; 3, several large vesicles; 4, large ulcers and necrosis; and 5, paralysis. The percent Lesion Inhibition was calculated as follows: 100−[(Sum of maximum lesion scores of treated group divided by the Sum of the scores of infected control)×100] (Table 6).

[12] = system: herpes simplex virus Type I; test: as above; format: in vivo; settings: guinea pigs
Method: as §1, §4

[13] = 0.5 mg/kg once per day for 5 days
[14] = 1.5 mg/kg once per day for 5 days
[15] = 4.5 mg/kg once per day for 5 days
[16] = at day 42, treatment from day 21 (tumors 13±2 mm×12±3 mm), 50 μl of 3% topically once per day
[17] = 0.5 mg/kg once per day for 3 days before HSV infection
[18] = 1.5 mg/kg once per day for 3 days before HSV infection
[19] = 4.5 mg/kg once per day for 3 days before HSV infection

In vitro Penetration Rate of Parent compounds (apparent flux) [1]: 0.005 mg/cm^2/h
Compound: Cl.Nc1nc2ccccc2c2c1ncn2Cc1ccccc1 [1-benzyl-1H-imidazo[4,5-c]quinolin-4-amine hydrochloride, reference compound]

In vitro Penetration Rate of Parent compounds (apparent flux) [1]: 0.005 mg/cm^2/h
Compound: CCCCn1cnc2c(N)nc3ccccc3c21.Cl [1-butyl-1H-imidazo[4,5-c]quinolin-4-amine hydrochloride, reference compound]

Compound: CC(C)Cn1cnc2c(N)nc3ccccc3c21.Cl [1-isobutyl-1H-imidazo[4,5-c]quinolin-4-amine hydrochloride, reference compound]
% Lesion inhibition of the parent drug, intravaginal, Herpes type II [2, 13]: 2% | % Lesion inhibition of the parent drug, transdermal, Herpes type II [2, 13]: 2% | % Lesion inhibition of the parent drug, intravaginal, Herpes type II [2, 14]: 2% | % Lesion inhibition of the parent drug, transdermal, Herpes type II [2, 14]: 2% | % Lesion inhibition of the parent drug, intravaginal, Herpes type II [2, 15]: 44% | % Lesion inhibition of the parent drug, transdermal, Herpes type II [2, 15]: 24% | % Lesion inhibition of the parent drug, intravaginal, Herpes type I [3, 13]: 2% | % Lesion inhibition of the parent drug, transdermal, Herpes type I [3, 13]: 2% | % Lesion inhibition of the parent drug, intravaginal, Herpes type I [3, 14]: 2% | % Lesion inhibition of the parent drug, transdermal, Herpes type I [3, 14]: 2% | % Lesion inhibition of the parent drug, intravaginal, Herpes type I [3, 15]: 37% | % Lesion inhibition of the parent drug, transdermal, Herpes type I [3, 15]: 22% | tumor size, first dimension [4, 16]: 17±2 mm | tumor size, second dimension [4, 16]: 15±2 mm | death of mice ([4]; up to day 70, 50 μl of 3% topically once per day from day 21): all mice died by day 70 | Tumor size, Human breast cancer, first dimension [5]: 12 ± 2 mm × | Tumor size, Human breast cancer, second dimension [5]: 11 ± 2 mm | tumor incidence, human breast cancer [5]: 100% | Interferon level of the parent drug, transdermal (interferon production [6]; 0.5 mg/kg once): 198 activity/ml | Interferon level of the parent drug, transdermal (interferon production [6]; 1.5 mg/kg once): 776 activity/ml | Interferon level of the parent drug, transdermal (interferon production [6]; 4.5 mg/kg once): 2,785 activity/ml | % Lesion inhibition of the parent drug, intravaginal, Herpes type II [7, 17]: 5% | % Lesion inhibition of the parent drug, transdermal, Herpes type II [7, 17]: 2% | % Lesion inhibition of the parent drug, intravaginal, Herpes type II [7, 18]: 28% | % Lesion inhibition of the parent drug, transdermal, Herpes type II [7, 18]: 2% | % Lesion inhibition of the parent drug, intravaginal, Herpes type II [7, 19]: 87% | % Lesion inhibition of the parent drug, transdermal, Herpes type II [7, 19]: 48% | % Lesion inhibition of the parent drug, intravaginal, Herpes type I [8, 17]: 4% | % Lesion inhibition of the parent drug, transdermal, Herpes type I [8, 17]: 2% | % Lesion inhibition of the parent drug, intravaginal, Herpes type I [8, 18]: 23% | % Lesion inhibition of the parent drug, transdermal, Herpes type I [8, 18]: 3% | % Lesion inhibition of the parent drug, intravaginal, Herpes type I [8, 19]: 85% | % Lesion inhibition of the parent drug, transdermal, Herpes type I [8, 19]: 45% | Interferon level of the parent drug, intravaginal (interferon production [9]; 0.5 mg/kg once): 385 activity/ml | Interferon level of the parent drug, intravaginal (interferon production [9]; 1.5 mg/kg once): 2,982 activity/ml | Interferon level of the parent drug, intravaginal (interferon production [9]; 4.5 mg/kg once): 28,982 activity/ml | In vitro Penetration Rate of Parent compounds (apparent flux) [1]: 0.005 mg/cm^2/h | Tumor size, Human colon cancer, first dimension [10]: 17 ± 2 mm × | Tumor size, Human colon cancer, second dimension [10]: 15 ± 2 mm | tumor incidence, human colon cancer [10]: 100% | % Lesion inhibition of the parent drug, intravaginal, Herpes type II [11, 13]: 2% | % Lesion inhibition of the parent drug, transdermal, Herpes type II [11, 13]: 2% | % Lesion inhibition of the parent drug, intravaginal, Herpes type II [11, 14]: 21% | % Lesion inhibition of the parent drug, transdermal, Herpes type II [11, 14]: 6% | % Lesion inhibition of the parent drug, intravaginal, Herpes type II [11, 15]: 82% | % Lesion inhibition of the parent drug, transdermal, Herpes type II [11, 15]: 54% | % Lesion inhibition of the parent drug, intravaginal, Herpes type I [12, 13]: 2% | % Lesion inhibition of the parent drug, transdermal, Herpes type I [12, 13]: 2% | % Lesion inhibition of the parent drug, intravaginal, Herpes type I [12, 14]: 17% | % Lesion inhibition of the parent drug, transdermal, Herpes type I [12, 14]: 7% | % Lesion inhibition of the parent drug, intravaginal, Herpes type I [12, 15]: 78% | % Lesion inhibition of the parent drug, transdermal, Herpes type I [12, 15]: 52%

Compound: CCCCCCn1cnc2c(NC(=O)CN(C)C)nc3ccccc3c21.Cl [N,N-dimethylglycine 1-n-hexyl-1H-imidazo[4,5-c]quinolin-4-amide hydrochloride]
% Lesion inhibition of the HPP, intravaginal, Herpes type II [2, 13]: 28% | % Lesion inhibition of the HPP, transdermal, Herpes type II [2, 13]: 25% | % Lesion inhibition of the HPP, intravaginal, Herpes type II [2, 14]: 65% | % Lesion inhibition of the HPP, transdermal, Herpes type II [2, 14]: 55% | % Lesion inhibition of the HPP, intravaginal, Herpes type II [2, 15]: 85% | % Lesion inhibition of the HPP, transdermal, Herpes type II [2, 15]: 81% | % Lesion inhibition of the HPP, intravaginal, Herpes type I [3, 13]: 31% | % Lesion inhibition of the HPP, transdermal, Herpes type I [3, 13]: 28% | % Lesion inhibition of the HPP, intravaginal, Herpes type I [3, 14]: 62% | % Lesion inhibition of the HPP, transdermal, Herpes type I [3, 14]: 52% | % Lesion inhibition of the HPP, intravaginal, Herpes type I [3, 15]: 83% | % Lesion inhibition of the HPP, transdermal, Herpes type I [3, 15]: 82% | Interferon level of the HPP, transdermal (interferon production [6]; 0.5 mg/kg once): 11,756 activity/ml | Interferon level of the HPP, transdermal (interferon production [6]; 1.5 mg/kg once): 22,537 activity/ml | Interferon level of the HPP, transdermal (interferon production [6]; 4.5 mg/kg once): 61,758 activity/ml | % Lesion inhibition of the HPP, intravaginal, Herpes type II [7, 17]: 68% | % Lesion inhibition of the HPP, transdermal, Herpes type II [7, 17]: 40% | % Lesion inhibition of the HPP, intravaginal, Herpes type II [7, 18]: 90% | % Lesion inhibition of the HPP, transdermal, Herpes type II [7, 18]: 68% | % Lesion inhibition of the HPP, intravaginal, Herpes type II [7, 19]: 95% | % Lesion inhibition of the HPP, transdermal, Herpes type II [7, 19]: 93% | % Lesion inhibition of the HPP, intravaginal, Herpes type I [8, 17]: 67% | % Lesion inhibition of the HPP, transdermal, Herpes type I [8, 17]: 38% | % Lesion inhibition of the HPP, intravaginal, Herpes type I [8, 18]: 91% | % Lesion inhibition of the HPP, transdermal, Herpes type I [8, 18]: 67% | % Lesion inhibition of the HPP, intravaginal, Herpes type I [8, 19]: 95% | % Lesion inhibition of the HPP, transdermal, Herpes type I [8, 19]: 91% | Interferon level of the HPP, intravaginal (interferon production [9]; 0.5 mg/kg once): 21,857 activity/ml | Interferon level of the HPP, intravaginal (interferon production [9]; 1.5 mg/kg once): 57,147 activity/ml | Interferon level of the HPP, intravaginal (interferon production [9]; 4.5 mg/kg once): 78,569 activity/ml | % Lesion inhibition of the HPP, intravaginal, Herpes type II [11, 13]: 68% | % Lesion inhibition of the HPP, transdermal, Herpes type II [11, 13]: 38% | % Lesion inhibition of the HPP, intravaginal, Herpes type II [11, 14]: 90% | % Lesion inhibition of the HPP, transdermal, Herpes type II [11, 14]: 75% | % Lesion inhibition of the HPP, intravaginal, Herpes type II [11, 15]: 95% | % Lesion inhibition of the HPP, transdermal, Herpes type II [11, 15]: 91% | % Lesion inhibition of the HPP, intravaginal, Herpes type I [12, 13]: 67% | % Lesion inhibition of the HPP, transdermal, Herpes type I [12, 13]: 37% | % Lesion inhibition of the HPP, intravaginal, Herpes type I [12, 14]: 91% | % Lesion inhibition of the HPP, transdermal, Herpes type I [12, 14]: 73% | % Lesion inhibition of the HPP, intravaginal, Herpes type I [12, 15]: 95% | % Lesion inhibition of the HPP, transdermal, Herpes type I [12, 15]: 90%
